Patent publication US20080275134A1, “Methods for Treatment of Retinal Degenerative Disease” (University of Washington, priority 2005, published 2008)

Columns and labels:
[1] = system: RAR; experiment: F9-RARE-lacZ reporter cell line, β-galactosidase activity (DR5 elements); format: cell-based; conditions: 24 hours treatment, micromolar concentrations
Excerpt: 13-cis-RA can isomerize to all-trans-RA and then to 9-cis-RA, both of which are potent ligands of the RA receptor (RAR). 9-cis-RA also binds and activates the retinoid X receptor (RXR). This contributes to the toxicity of the RAR and RXR ligands. It was investigated whether Ret-NH2 can activate these nuclear receptor using reporter-cells as described previously (20). A β-galactosidase activity assay was employed to examine if all-trans-RA, 9-cis-RA, and Ret-NH2 are agonists for these nuclear receptors.
F9-RARE-lacZ cells express endogenous RAR and RXR and were transfected with a construct of lacZ under the control of a minimal promoter and upstream DR5 elements (1). F9-RARE-lacZ cells were treated with different doses of all-trans-RA or Ret-NH2 for 24 hours after which the cells were harvested and the β-galactosidase activity was measured using the soluble substrate o-nitrophenyl β-D-galactopyranoside. The colorless substrate was cleaved by β-galactosidase to yellow colored o-nitrophenol, whose absorbance was measured at 420 nm using a spectrophotometer. The experiment was repeated twice with similar results. The RARE reporter cell line F9-RARE-lacZ (SIL15-RA) was a kind gift from Dr. Michael Wagner (SUNY Downstate Medical Center) and Dr. Peter McCaffery (University of Massachusetts Medical School). […]

[2] = biological target: T1, CYP26A1 (Homo sapiens, UniProt O43174); experiment: oxidation in HEK-293 cells transfected with CYP26A1 cDNA; format: in vitro ADME
T1 construct: expressed in transfected cells; host or cells: HEK-293
T1 sequence (O43174 1-497): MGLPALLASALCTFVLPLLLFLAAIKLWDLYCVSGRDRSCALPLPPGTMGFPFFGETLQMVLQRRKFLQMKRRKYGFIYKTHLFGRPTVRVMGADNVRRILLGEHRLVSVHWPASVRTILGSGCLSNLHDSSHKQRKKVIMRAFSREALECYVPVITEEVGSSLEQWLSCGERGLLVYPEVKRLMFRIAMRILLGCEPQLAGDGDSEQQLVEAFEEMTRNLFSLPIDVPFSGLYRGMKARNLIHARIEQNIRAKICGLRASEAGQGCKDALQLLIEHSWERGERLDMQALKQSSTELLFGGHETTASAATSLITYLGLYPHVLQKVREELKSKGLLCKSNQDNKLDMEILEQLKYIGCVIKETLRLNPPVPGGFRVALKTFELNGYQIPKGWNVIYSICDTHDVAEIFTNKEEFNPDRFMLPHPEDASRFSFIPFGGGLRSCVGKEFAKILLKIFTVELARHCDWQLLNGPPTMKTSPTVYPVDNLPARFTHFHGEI
Excerpt: Next, the RA oxidation pathway was investigated. […] In addition to secretion, Ret-NH2 might be degraded first by deamination to all-trans-retinol/retinal, which was seen to increase in Ret-NH2 treated cells. […] These observations explain the long-lasting effect of RetNH2, as the amide is stored and hydrolyzed back to the free amine.

[3] = system: regeneration of vision chromophore (11-cis-retinal); experiment: regeneration of 11-cis-retinal in mouse eyes after gavage and light bleach, HPLC retinoid analysis; format: in vivo; conditions: 50 mg/kg, tested in parallel with Ret-NH2
Experimental: Mice were gavaged with all-trains-Ret-NH2, exposed to intense light for 20 min, and then allowed to recover in the dark for 5 hours. The total amount of different forms of retinoids in all experiments was unchanged. […] For this experiment mice were treated with both 9-cis-retinol and all-trans-Ret-NH2, and bleached after 24 hours, and were allowed to recover for 5 hours in the dark. The presence of 9-cis-retinal was confirmed in treated animals (see peaks 4 and 4′ in FIG. 4A bottom panel, corresponding to syn- and anti-9-cis-retinal oximes, respectively). 11-cis-Retinal was not reduced and/or esterified after treatment with Ret-NH2. […] This supports the idea that Ret-NH2 is a specific inhibitor of the isomerization reaction.
A. Chromatographic separation of nonpolar retinoids from WT mouse eyes. Mice were gavaged with all-trans-Ret-NH2 24 hours prior to bleaching for 20 min at 150 cd·m^−2 W in the Ganzfeld chamber. Regeneration of 11-cis-retinal was allowed for 24 hours in the dark, and retinoids were extracted from the eye and separated by normal phase HPLC as described in Materials and Methods. The peaks were identified based on elution time and absorption spectra correspond to the following retinoids: 1, all-trans-retinyl esters; 2,2′, syn- and anti-11-cis-retinal oximes; 3, syn-all-trans-retinal oxime; 4,4′, syn- and anti-9-cis-retinal oximes; 5, all-trans-retinol. B. Changes of 11-cis-retinal oxime levels at increasing doses of all-trans-Ret-NH2 during 5 hours or 24 hours of dark adaptation. Square indicates the level of 11-cis-retinal oximes that was present in mice gavaged with vegetable oil without retinoids just after bleaching, and arrow indicates the increase of visual chromophore during 5 hours of dark adaptation. Triangles correspond to the level of 11-cis-retinal found in the mice gavaged with 50 mg/kg of 13-cis-RA. C and D. Single flash ERG responses of increasing intensity for all-trans-Ret-NH2 treated mice and control mice. Serial responses to increasing flash stimuli were obtained for all-trans-Ret-NH2 treated and control mice for selected intensities (C) and plotted as a function of a-wave and b-wave versus varying light intensities under dark-adapted conditions (D) before bleach and at 5 hours and 24 hours after bleach. The dark-adapted mice were bleached with intense constant illumination (150 cd·m^−2) for 20 min. […] SE bars are shown.
Chromatographic separation of nonpolar retinoids from WT mouse eyes. Mice were gavaged with 100 mg/kg of all-trans-Ret-NH2 24 hours prior to bleaching. Mice were next exposed to 500 cd m^−2 for 48 min bleaching in the Ganzfeld chamber. Regeneration of 11-cis-retinal was allowed for 24 hours in the dark, and retinoids were extracted from the eye and separated by normal phase HPLC as described in Materials and Methods. The peaks identified based on elution time and absorption spectra correspond to the following retinoids: 1, all-trans-retinyl esters; 2,2′, syn- and anti-1-cis-retinal oximes; 3,3′ syn- and anti-all-trans-retinal oximes; 4, all-trans-retinol.
Mice were gavaged with the solution of inhibitor in vegetable oil (control—non-treated, RPN—retinylpalmitamide, RAN—retinylacetamide, Ret—NH2-all-trans-retinylamine), kept in dark for 16 hours, then light stimulated and kept in dark for additional 5 hours before their eyes were analyzed.
Mouse retinoid extraction and analysis—Retinoid analysis was performed under dim red light as described previously (Maeda et al., J. Neurochem 85:944-956, 2003; Van Hooser et al., J Biol Chem 277:19173-82, 2002). Mice were gavaged with retinoids as described previously (Van Hooser et al., J Biol Chem 277:19173-82, 2002).

[4] = system: A2E formation; conditions: in vivo; cited from earlier work
[5] = system: 11-cis-RDH; conditions: cited from earlier work

## CC1=C(/C=C/C(C)=C/C=C/C(C)=C/C(=O)O)C(C)(C)CCC1 [all-trans-RA, All-trans-retinoic acid, reference compound]
[1]
  activation of transcription through RAR (DR5 RARE): activated transcription

## CC1=C(/C=C/C(C)=C/C=C/C(C)=C/C(=O)O)C(C)(C)CCC1 [retinoic acid, reference compound]
[2]
  oxidation by CYP26A1: readily oxidized

## CC1=C(/C=C/C(C)=C/C=C/C(C)=C\C(=O)O)C(C)(C)CCC1 [13-cis-RA, 13-cis-retinoic acid]
[3]
  effect on chromophore recovery at 50 mg/kg: ineffective
[4]
  formation of A2E: blocked the formation of A2E
[5]
  inhibition of 11-cis-RDH: inhibits 11-cis-RDH
